Earlier results as cited in US8216495B2, “Preparation method for solid dispersions” (Formac Pharmaceuticals N.V., priority 2008, dated 2012).
≈ marks a conversion by molar mass, not a printed value. Blank lines part the entries; values can stand above or below the compound they belong to.

Legend:
[1] = weak base
[2] = not given; remark: listed apart in the source

- solubility in alcohol and acetone (alcohol and acetone): soluble
- solubility in water: practically insoluble
SMILES: NC(=O)N1c2ccccc2C=Cc2ccccc21 [Carbamazepine, 5H-dibenz[b,f]azepine-5-carboxamide]

- aqueous solubility (pH=1): 4 µg/mL (≈ 5.67 µM)
- pKa [1]: 4.0
SMILES: CCC(C)n1ncn(-c2ccc(N3CCN(c4ccc(OCC5COC(Cn6cncn6)(c6ccc(Cl)cc6Cl)O5)cc4)CC3)cc2)c1=O (stereo not drawn) [Itraconazole]

- half-life ([2]; danazol administered orally): 4 to 5 h
- increase in plasma concentration on doubling the dose ([2]; danazol administered orally): 30-40%
- time of peak concentrations ([2]; danazol administered orally): ≤ 2 h
SMILES: C#C[C@]1(O)CC[C@H]2[C@@H]3CCC4=Cc5oncc5C[C@]4(C)[C@H]3CC[C@@]21C [Danazol, 17a-Pregna-2,4-dien-20-yno[2,3-d]-isoxazol-17-ol]

- solubility in ethanol (ethanol): freely soluble
- solubility in methanol and chloroform (methanol and chloroform): very soluble
- solubility in water: practically insoluble
- absolute bioavailability ([2]; 5 mg dose taken twice a day, oral): approximately 17%
SMILES: C=CC[C@@H]1/C=C(\C)C[C@H](C)C[C@H](OC)[C@H]2O[C@@](O)(C(=O)C(=O)N3CCCC[C@H]3C(=O)O[C@H](/C(C)=C/[C@@H]3CC[C@@H](O)[C@H](OC)C3)[C@H](C)[C@@H](O)CC1=O)[C@H](C)C[C@@H]2OC [Tacrolimus]

- solubility in water: insoluble
SMILES: CC(=O)O[C@H]1C(=O)[C@@]2(C)[C@H]([C@H](OC(=O)c3ccccc3)[C@]3(O)C[C@H](OC(=O)[C@H](O)[C@@H](NC(=O)c4ccccc4)c4ccccc4)C(C)=C1C3(C)C)[C@]1(OC(C)=O)CO[C@@H]1C[C@@H]2O [Paclitaxel]
